The text below walks through data of patent US20240269139A1, “COMPOUNDS FOR TARGETED PROTEIN DEGRADATION OF KINASES” (DANA-FARBER CANCER INSTITUTE, INC., priority 2020, published 2024).

Assay type in all cases: cell-based
Assay [1] concerns protein kinases (human kinome). The following applies: for logFC MAPK14: experiment wp047. The text has this: (§1) Although development of targeted protein degraders requires a POI binder, among already-liganded proteins such as kinases, it was hypothesized that different targets would have a different propensity for current approaches to degrader-mediated destruction, which was termed ‘degradability’. […] It was rationalized that the probability of identifying the same kinase as a false positive in multiple treatments is low, therefore this analysis served to also assess the robustness of our data and subsequent interpretations. […] Overall, 62 protein kinases were degraded in more than 10 independent treatments, and remarkably, 9 of these (CDK4, AURKA, FER, WEE1, BLK. LIMK2, CDK6, GAK, LIMK1) were each degraded in at least 40 of the 154 independent treatments, emphasizing their predisposition to induced degradation (FIG. 1G; Appendix I).
(§2) Next, the frequency of degradation assessment was corrected for over-representation of molecules in the full dataset by omitting replicate profiling of compounds under different experimental conditions, to remove any bias. […] Unsurprisingly, the top degradable kinases mirror those from the previous analysis (CDK4, AURKA, FER, WEE1, BLK), confirming that in sufficiently large datasets, even with over-representation of certain molecules, frequency of degradation is a good measure of general tractability.

For assay [2], the target named is protein kinases (human kinome) (Homo sapiens, UniProt Q16539).
Chain of protein kinases (human kinome) (Homo sapiens, UniProt Q16539) (Q16539 whole entry): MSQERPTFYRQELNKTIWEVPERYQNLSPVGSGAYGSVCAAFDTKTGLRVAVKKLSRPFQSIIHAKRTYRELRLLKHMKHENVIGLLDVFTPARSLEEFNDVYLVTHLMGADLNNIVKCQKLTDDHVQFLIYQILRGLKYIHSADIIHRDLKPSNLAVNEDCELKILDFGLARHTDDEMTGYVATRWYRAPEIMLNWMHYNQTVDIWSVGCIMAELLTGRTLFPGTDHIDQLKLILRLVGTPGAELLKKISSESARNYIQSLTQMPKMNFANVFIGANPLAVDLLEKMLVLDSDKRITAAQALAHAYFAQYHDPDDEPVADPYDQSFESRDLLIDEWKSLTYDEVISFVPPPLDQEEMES
Excerpt: as §1, §2

Assay [3] deals with protein kinases (human kinome) (Homo sapiens, UniProt P30291). The conditions noted are these: for logFC of WEE1: WEE1 P30291-1.
Chain of protein kinases (human kinome) (Homo sapiens, UniProt P30291) (P30291 whole entry): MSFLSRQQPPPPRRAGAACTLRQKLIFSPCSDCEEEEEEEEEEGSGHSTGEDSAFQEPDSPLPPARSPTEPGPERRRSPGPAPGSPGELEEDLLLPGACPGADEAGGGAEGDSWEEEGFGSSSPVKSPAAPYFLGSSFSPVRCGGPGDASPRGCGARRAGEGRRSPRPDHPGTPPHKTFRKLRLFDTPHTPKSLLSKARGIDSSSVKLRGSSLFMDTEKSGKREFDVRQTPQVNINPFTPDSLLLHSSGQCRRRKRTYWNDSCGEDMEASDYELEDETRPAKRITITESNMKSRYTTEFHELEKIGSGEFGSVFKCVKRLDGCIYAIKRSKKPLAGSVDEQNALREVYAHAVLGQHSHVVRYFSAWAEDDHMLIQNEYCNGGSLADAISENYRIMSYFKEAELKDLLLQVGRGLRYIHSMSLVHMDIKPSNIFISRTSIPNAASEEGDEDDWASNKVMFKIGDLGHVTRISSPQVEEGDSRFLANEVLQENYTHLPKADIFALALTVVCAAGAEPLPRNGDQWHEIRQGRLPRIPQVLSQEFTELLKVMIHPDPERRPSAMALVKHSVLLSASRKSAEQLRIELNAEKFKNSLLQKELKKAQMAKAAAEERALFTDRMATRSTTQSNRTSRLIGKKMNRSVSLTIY
Excerpt: as §1, §2

In assay [4] the target is protein kinases (human kinome) (Homo sapiens, UniProt Q15118). The following applies: PDK1 Q15118; experiment wp084.
Chain of protein kinases (human kinome) (Homo sapiens, UniProt Q15118) (Q15118 29-436): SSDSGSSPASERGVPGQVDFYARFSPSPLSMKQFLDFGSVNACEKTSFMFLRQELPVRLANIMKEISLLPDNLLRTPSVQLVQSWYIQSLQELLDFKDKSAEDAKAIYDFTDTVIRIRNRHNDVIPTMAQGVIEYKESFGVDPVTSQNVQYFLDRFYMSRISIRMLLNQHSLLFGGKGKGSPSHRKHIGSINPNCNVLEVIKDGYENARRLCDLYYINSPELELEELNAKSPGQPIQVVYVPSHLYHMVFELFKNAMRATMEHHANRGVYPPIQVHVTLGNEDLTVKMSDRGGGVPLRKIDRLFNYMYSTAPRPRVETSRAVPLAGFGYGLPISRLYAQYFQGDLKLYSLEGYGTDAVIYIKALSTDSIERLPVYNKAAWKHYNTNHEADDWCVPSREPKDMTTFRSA
Excerpt: as §1, §2

Assay [5] deals with protein kinases (human kinome) (Homo sapiens, UniProt Q00534). The conditions noted are these: for logFC CDK6: CDK6 (Q00534), direction down; for logFC of CDK6 (Q00534): down.
Chain of protein kinases (human kinome) (Homo sapiens, UniProt Q00534) (Q00534 whole entry): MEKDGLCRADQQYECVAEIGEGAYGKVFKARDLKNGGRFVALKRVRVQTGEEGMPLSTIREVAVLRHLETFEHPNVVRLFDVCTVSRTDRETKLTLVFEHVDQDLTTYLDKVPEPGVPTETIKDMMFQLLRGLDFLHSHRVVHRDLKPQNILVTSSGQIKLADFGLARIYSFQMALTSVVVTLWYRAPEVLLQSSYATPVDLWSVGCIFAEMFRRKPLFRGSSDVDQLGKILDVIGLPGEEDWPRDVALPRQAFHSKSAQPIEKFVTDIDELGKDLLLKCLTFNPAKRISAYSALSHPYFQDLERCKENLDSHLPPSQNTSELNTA
Excerpt: as §1, §2

For assay [6], the target named is protein kinases (human kinome) (Homo sapiens, UniProt P11802).
Chain of protein kinases (human kinome) (Homo sapiens, UniProt P11802) (P11802 whole entry): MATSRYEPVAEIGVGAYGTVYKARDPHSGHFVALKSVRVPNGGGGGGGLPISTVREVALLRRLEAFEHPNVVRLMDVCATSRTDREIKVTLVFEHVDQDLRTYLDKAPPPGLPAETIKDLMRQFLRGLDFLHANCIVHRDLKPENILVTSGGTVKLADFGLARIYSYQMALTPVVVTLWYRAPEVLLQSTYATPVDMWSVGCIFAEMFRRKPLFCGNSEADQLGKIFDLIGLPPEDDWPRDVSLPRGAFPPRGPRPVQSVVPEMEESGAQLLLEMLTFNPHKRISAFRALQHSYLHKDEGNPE
Excerpt: as §1, §2

Assay [7] addresses T1, protein kinases (human kinome) (Homo sapiens, UniProt Q08881).
T1 sequence (Q08881 1-620): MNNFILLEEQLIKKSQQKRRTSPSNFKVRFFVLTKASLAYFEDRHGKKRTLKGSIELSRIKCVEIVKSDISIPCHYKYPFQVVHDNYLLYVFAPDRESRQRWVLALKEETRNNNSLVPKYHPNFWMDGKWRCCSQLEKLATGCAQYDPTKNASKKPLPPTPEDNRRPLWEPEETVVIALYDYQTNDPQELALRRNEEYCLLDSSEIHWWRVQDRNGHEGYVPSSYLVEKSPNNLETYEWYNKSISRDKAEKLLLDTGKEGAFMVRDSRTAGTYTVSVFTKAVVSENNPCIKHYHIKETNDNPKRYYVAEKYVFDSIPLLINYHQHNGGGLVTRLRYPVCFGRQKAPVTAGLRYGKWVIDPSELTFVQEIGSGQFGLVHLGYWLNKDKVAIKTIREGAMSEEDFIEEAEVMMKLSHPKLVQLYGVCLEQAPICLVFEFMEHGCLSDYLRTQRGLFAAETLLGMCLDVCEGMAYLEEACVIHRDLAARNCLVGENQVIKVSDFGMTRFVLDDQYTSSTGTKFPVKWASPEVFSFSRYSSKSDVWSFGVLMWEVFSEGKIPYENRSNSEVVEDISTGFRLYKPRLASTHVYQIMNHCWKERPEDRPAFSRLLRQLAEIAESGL
The following applies: experiment wp134.
Excerpt: as §1, §2

The target of assay [8] is protein kinases (human kinome) (Homo sapiens, UniProt P53671). The following applies: for logFC of LIMK2: LIMK2 P53671.
Chain of protein kinases (human kinome) (Homo sapiens, UniProt P53671) (P53671 whole entry): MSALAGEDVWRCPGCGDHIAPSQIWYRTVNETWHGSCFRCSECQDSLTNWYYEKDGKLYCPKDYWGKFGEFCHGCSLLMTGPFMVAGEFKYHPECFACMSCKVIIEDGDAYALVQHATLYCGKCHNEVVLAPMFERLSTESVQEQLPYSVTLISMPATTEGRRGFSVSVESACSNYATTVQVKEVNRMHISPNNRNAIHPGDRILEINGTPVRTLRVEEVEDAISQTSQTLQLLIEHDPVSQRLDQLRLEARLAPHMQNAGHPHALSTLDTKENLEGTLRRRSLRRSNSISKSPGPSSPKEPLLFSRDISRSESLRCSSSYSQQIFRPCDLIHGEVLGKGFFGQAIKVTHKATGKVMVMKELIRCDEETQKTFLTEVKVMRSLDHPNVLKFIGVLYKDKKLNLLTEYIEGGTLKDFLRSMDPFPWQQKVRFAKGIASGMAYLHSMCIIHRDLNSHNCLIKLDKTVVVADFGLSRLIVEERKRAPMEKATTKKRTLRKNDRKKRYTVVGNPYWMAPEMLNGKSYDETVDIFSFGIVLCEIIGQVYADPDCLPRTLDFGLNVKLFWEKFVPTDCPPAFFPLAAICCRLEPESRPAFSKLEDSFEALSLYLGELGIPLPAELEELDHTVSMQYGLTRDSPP
Excerpt: as §1, §2

Assay [9] addresses protein kinases (human kinome) (Homo sapiens, UniProt P51451). The following applies: for logFC of BLK (P51451): down.
Excerpt: as §1, §2

Assay [10] concerns the target protein kinases (human kinome) (Homo sapiens, UniProt P53667). The following applies: LIMK1 (P53667-1), experiment wp149.
Excerpt: as §1, §2

Assay [11] concerns the target T2, protein kinases (human kinome) (Homo sapiens, UniProt Q9UEE5).
T2 sequence (Q9UEE5 1-414): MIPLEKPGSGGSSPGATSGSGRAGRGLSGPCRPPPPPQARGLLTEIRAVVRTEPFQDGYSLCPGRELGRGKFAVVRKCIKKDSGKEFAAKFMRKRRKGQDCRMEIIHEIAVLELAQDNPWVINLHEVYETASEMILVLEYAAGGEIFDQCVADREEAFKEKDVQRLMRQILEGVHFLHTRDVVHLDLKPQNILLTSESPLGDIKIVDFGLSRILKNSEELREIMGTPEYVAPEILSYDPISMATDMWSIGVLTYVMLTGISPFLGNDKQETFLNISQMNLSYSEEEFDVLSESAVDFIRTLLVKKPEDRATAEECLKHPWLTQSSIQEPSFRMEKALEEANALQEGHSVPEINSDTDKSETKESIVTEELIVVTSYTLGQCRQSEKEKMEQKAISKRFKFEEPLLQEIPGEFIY
The following applies: STK17A Q9UEE5; experiment wp149.
Excerpt: as §1, §2

The target in assay [12] is protein kinases (human kinome) (Homo sapiens, UniProt P41240). The conditions noted are these: experiment wp045.
Excerpt: as §1, §2

The target of assay [13] is protein kinases (human kinome) (Homo sapiens, UniProt P42684).
Chain of protein kinases (human kinome) (Homo sapiens, UniProt P42684) (P42684 whole entry): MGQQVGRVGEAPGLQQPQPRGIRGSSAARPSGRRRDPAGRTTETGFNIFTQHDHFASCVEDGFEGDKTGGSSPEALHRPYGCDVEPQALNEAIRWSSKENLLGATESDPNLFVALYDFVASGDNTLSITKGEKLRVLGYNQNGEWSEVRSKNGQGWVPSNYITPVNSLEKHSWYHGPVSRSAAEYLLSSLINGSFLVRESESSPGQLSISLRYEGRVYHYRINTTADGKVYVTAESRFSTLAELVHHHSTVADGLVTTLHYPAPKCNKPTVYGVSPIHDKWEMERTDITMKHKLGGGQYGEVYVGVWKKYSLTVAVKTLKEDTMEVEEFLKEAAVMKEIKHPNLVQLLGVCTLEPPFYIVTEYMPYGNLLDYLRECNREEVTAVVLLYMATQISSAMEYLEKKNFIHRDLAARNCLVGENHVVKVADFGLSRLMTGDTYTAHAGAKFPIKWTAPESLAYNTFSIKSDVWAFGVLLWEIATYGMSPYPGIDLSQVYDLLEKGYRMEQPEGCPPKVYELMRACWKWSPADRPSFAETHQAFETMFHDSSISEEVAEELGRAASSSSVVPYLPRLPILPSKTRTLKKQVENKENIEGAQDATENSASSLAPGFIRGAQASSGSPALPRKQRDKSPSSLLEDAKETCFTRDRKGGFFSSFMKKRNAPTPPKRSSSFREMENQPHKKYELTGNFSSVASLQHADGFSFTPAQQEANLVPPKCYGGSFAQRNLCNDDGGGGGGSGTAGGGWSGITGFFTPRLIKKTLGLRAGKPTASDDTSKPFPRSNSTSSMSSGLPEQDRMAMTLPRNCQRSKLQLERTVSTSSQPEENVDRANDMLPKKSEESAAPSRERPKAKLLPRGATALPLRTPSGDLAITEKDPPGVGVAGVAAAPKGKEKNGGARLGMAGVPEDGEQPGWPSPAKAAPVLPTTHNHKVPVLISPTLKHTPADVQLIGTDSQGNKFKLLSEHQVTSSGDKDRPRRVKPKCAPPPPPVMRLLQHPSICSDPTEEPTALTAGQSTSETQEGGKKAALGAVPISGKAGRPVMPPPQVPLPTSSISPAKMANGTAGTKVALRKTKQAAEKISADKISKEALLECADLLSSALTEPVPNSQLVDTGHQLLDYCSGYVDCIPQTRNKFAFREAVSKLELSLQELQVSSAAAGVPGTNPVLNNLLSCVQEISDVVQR
Excerpt: as §1, §2

Read-outs that look alike come from different tables or passages of the source.

Chain of protein kinases (human kinome) (Homo sapiens, UniProt P51451) (P51451 whole entry): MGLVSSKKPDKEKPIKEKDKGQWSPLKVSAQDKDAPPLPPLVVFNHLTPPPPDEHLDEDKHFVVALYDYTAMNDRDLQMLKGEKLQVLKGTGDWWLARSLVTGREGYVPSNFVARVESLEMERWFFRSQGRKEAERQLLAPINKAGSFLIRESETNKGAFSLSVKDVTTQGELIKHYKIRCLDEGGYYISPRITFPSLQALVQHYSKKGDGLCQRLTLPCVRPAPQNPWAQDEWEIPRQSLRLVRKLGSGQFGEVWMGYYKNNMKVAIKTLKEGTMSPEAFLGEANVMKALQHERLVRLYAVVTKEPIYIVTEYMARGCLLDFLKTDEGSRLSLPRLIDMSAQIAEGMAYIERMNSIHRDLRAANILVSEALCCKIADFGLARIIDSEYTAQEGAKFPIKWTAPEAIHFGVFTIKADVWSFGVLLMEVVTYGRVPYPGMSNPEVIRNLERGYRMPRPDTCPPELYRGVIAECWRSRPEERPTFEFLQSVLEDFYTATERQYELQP
Chain of protein kinases (human kinome) (Homo sapiens, UniProt P53667) (P53667 whole entry): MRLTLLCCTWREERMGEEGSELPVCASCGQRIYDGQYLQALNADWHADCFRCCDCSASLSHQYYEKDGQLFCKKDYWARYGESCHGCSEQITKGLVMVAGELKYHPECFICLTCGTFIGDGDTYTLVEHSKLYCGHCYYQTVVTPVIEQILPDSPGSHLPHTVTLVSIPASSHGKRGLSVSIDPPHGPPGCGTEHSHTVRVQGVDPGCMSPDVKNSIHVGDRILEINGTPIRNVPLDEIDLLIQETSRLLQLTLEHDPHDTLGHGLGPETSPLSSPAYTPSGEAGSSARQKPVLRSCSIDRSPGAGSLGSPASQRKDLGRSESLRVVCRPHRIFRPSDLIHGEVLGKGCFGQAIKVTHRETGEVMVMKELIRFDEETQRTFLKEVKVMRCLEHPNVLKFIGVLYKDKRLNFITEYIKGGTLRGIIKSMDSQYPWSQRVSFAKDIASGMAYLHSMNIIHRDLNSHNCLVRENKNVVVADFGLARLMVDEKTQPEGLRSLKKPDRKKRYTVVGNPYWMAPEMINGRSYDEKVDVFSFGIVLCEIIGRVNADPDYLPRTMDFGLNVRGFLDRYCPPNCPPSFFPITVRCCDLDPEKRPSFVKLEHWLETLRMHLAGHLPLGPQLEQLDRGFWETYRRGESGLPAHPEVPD

Consider `Cc1ccc(NC(=O)c2cccc(C(C)(C)C#N)c2)cc1Nc1ccc2ncn(CCOCCOCCC(=O)N[C@H](C(=O)N3C[C@H](O)C[C@H]3C(=O)NCc3ccc(-c4scnc4C)cc3)C(C)(C)C)c(=O)c2c1` [DD.02.198], for which the “logFC MAPK14” value was −0.617 in assay [1] (MAPK14, accession Q16539-2, direction of change down); −0.617 in assay [1] (MAPK14 Q16539-2); −1.387 in assay [2] (MAPK14, accession Q16539, experiment wp047, direction of change down). In assay [2] (MAPK14 (Q16539) protein abundance, degrader vs DMSO, down), this compound showed a logFC of −1.387.
As to `CC(=O)c1c(C)c2cnc(Nc3ccc(N4CCN(CCCCNC(=O)COc5cccc6c5C(=O)N(C5CCC(=O)NC5=O)C6=O)CC4)cn3)nc2n(C2CCCC2)c1=O` (centres unmarked) [BSJ.03.204], the results for the “logFC of WEE1” value in assay [3] (experiment wp084) and in assay [3] (experiment wp137) were −0.5774 and −0.6759, respectively. For the same compound, the “logFC WEE1 (P30291-1)” value is −0.5774 in [3] (experiment wp084) and −0.6759 in assay [3] (experiment wp137). In assay [4], the logFC is −0.3767. Further, in [4], the “logFC PDK1” value was −0.3767. For the same compound, the “logFC CDK6” value is given as −3.574 in [5] (experiment wp084) and −2.866 in [5] (experiment wp137). The results for the “logFC of CDK6 (Q00534)” value in [5] (Experiment wp084) and in assay [5] (Experiment wp137) were −3.574 and −2.866, respectively. The “logFC CDK4 (P11802)” value in assay [6] (experiment wp084) is listed as −2.162; in assay [6] (experiment wp137) it was −2.118.
For `COc1cc(C)c(Sc2cnc(NC(=O)c3ccc(N4CCN(CCCCCCCNC(=O)COc5cccc6c5C(=O)N(C5CCC(=O)NC5=O)C6=O)CC4)cc3)s2)cc1C(=O)N1CCN(C(C)=O)CC1` (centres unmarked) [BSJ.05.037], the “logFC ITK (Q08881)” value in [7] was −1.816. Besides, the “logFC of LIMK2” value in [8] (experiment wp134) is −0.4981.
Consider `CN1c2ccccc2C(=O)Nc2cnc(Nc3ccc(N4CCN(C(=O)CCOCCNc5cccc6c5C(=O)N(C5CCC(=O)NC5=O)C6=O)CC4)cc3)nc21` (centres unmarked) [ZNL.03.127], for which the “logFC BLK” value in [9] (BLK (P51451), direction down, experiment wp149) was −0.5024. Further, the “logFC of BLK (P51451)” value in [9] (Experiment wp149) was −0.5024. Further, the “logFC LIMK1” value in [10] (direction down) and in assay [10] (down) was −0.4764 each time. For the same compound, in assay [1] (Experiment wp149, direction down), the “logFC TNK2 (Q07912-3)” value is given as −0.8778. Also, the logFC was −0.8778 in assay [1] (TNK2 (Q07912-3), experiment wp149, direction down) and −0.4605 in assay [11]. Besides, in assay [8] (LIMK2 (P53671), experiment wp149, down), the “logFC LIMK2” value is given as −0.3944. Further, the “logFC of LIMK2” value in assay [8] (experiment wp149) was −0.3944. Further, the “logFC STK17A” value in assay [11] is listed as −0.4605.
With `Cc1nc(Nc2ncc(C(=O)Nc3c(C)cccc3Cl)s2)cc(N2CCN(CC(=O)NCCCCNC(=O)COc3cccc4c3C(=O)N(C3CCC(=O)NC3=O)C4=O)CC2)n1` (centres unmarked) [DB.3.291], the “logFC of BLK” value in assay [9] (BLK P51451, experiment wp045) is −0.5857. The “logFC of BLK (P51451)” value in assay [9] (Experiment wp045) is −0.5857. For the same compound, the “logFC of CSK” value in [12] (Accession P41240) is listed as −2.257. Besides, the “logFC CSK” value in assay [12] (CSK (P41240), down) was −2.257. For the same compound, the “logFC WEE1 (P30291-1)” value in [3] (experiment wp045) was −0.4161. Besides, the logFC in assay [13] (ABL2 (P42684) protein abundance, degrader vs DMSO, down) is −0.3739. The “logFC ABL2 (P42684)” value in assay [13] (Experiment wp045) is given as −0.3739.
